The values that follow come from patent publication US20090275515A1, “2-HYDROXY-2-PHENYLTHIOPHENYLPROPIONAMIDES AS ANDROGEN RECEPTOR MODULATORS” (priority 2006, published 2009).

Each structure is given as a SMILES string.

The test can be described thus: biochemical assays (not further specified). The note with it: compound coupled from the second-peak acid 5-4 (RT=21 min).

Consider `O=C(NCc1cc(C(F)(F)F)ccn1)[C@](O)(c1ccccc1)C(F)(F)C(F)(F)F` [Example 7, (2R)-3,3,4,4,4-Pentafluoro-2-hydroxy-2-phenyl-N-(4-trifluoromethyl-pyridin-2-ylmethyl)-butyramide], for which the “activity in the biochemical assays” value was “active”.
